This note sets out measurements from patent US11264117B2, “Neoantigen identification using hotspots” (Gritstone bio, Inc., priority 2017, dated 2022).

Ends that are not written are not given here.

This assay concerns IFNγ-producing T-cells. As to the kind of experiment: IFN-gamma ELISpot on in vitro expanded (IVS) NSCLC patient PBMCs with patient-specific neoantigen peptide pools or individual peptides. It counts as cell-based, human. To be noted: NSCLC patient PBMCs after IVS culture. As to the method:
To do so, archival FFPE tumor biopsies and 5-30 ml of peripheral blood were analyzed from 9 patients with metastatic NSCLC undergoing anti-PD(L)1 therapy (Supplementary Table 2: Patient demographics and treatment information for N=9 patients studied in FIGS. 17A-C. Key fields include tumor stage and subtype, anti-PD1 therapy received, and summary of NGS results.). […] The full MS model was applied to prioritize 20 neoepitopes per patient for testing against pre-existing anti-tumor T-cell responses. To focus the analysis on likely CD8 responses, the prioritized peptides were synthesized as 8-11mer minimal epitopes (Methods), and then peripheral blood mononuclear cells (PBMCs) were cultured with the synthesized peptides in short in vitro stimulation (IVS) cultures to expand neoantigen-reactive T-cells (Supplementary Table 3). After two weeks the presence of antigen-specific T-cells was assessed using IFN-gamma ELISpot against the prioritized neoepitopes. In seven patients for whom sufficient PBMCs were available, separate experiments were also performed to fully or partially deconvolve the specific antigens recognized. The results are depicted in FIGS. 17A-C and 18A-21.
FIG. 17A depicts detection of T-cell responses to patient-specific neoantigen peptide pools for nine patients. […]

In the case of GTKKDVDVLK, the “T-cell recognition of individual peptide” value was “recognized by CD8 T-cells”.
